Measurements from patent US8048869B2, “Pharmaceutical composition for use in hormone replacement therapy” (Pantarhei Bioscience B.V., priority 2001, dated 2011).

Key:
[1] = test system: ovariectomized rats; test: Modified 7-day vaginal cornification bioassay with uterine wet weight; type: in vivo, rat; conditions: OVX rats, po, 7 days
Source text: Uterine weight increase in the rat was chosen as another relevant tissue-specific endpoint to determine the hormonal potency of estetrol (E4), particularly in relationship to its hormonal potency to induce vaginal cornification and to correct for vaginal atrophy. Orally (po) administered E4 was therefore tested in a modified 7-day vaginal cornification bioassay (see also example 1), including uterine wet weight measurements at necropsy, to account for vaginal and uterotrophic effects.
The uterotrophic response has been used for many years to assess estrogenic activity. The typical bioassay uses female rats with low levels of endogenous estrogens (e.g., ovariectomized adults or immature animals). In most assay designs the animals are dosed once or twice daily for 3 or 4 days, and twenty-four hours after the final dose the animals are killed, and the uteri excised and weighed. In the current bioassay, vaginal epithelial cornification, and uterine weight gain was evaluated in ovariectomized adult rats over a 7-day period. In this way, two distinct estrogen sensitive parameters could be evaluated concurrently.
Adult intact female CD rats were ovariectomized to induce estrogen deficiency. […] Castrate vaginal smears are indicative that complete ovariectomy was achieved. […] Animals were orally dosed, once daily for 7 consecutive days with vehicle control (10% ethanol/sesame oil) or either 0.1, 0.3, 1.0, or 3.0 mg/kg/day E4. Daily vaginal lavages continued to be obtained for 7 days after dosing was initiated in order to detect vaginal cornification, as an indication of an estrogenic response. A drop of vaginal washings was placed on a glass slide and examined by light microscopy to detect the presence or absence of cornified epithelial cells. The cells present in the vaginal washings were recorded. Vaginal lavages were obtained prior to dosing on days 0-6 and prior to necropsy on day 7.
On Study Day 7, following vaginal lavage 24 hours after the final dose, all rats were euthanized by CO2 asphyxiation. An abdominal incision was made and the uterus excised, blotted and weighed. The occurrence of vaginal cornification, indicative of an estrogenic response, is an “all or none” response. Therefore, data were expressed as the number of rats showing a vaginal estrogenic response (for one or more days) over the number of rats treated (ratio). A Z-test of proportions was used to compare the four test groups to the vehicle control group. Group means±SEM were also calculated for the uterine weights. […] Therefore, a Kruskal-Wallis non-parametric ANOVA on ranks was performed and significant differences across the four treatment groups and the vehicle control were determined using Dunn's method.

[2] = test system: OVX-rats; test: Endometrial proliferation after 4-week oral treatment (uterine weight, Ki67); type: in vivo, rat; conditions: 0.5 to […], 4 weeks (FIG. 5)
Source text: Endometrial proliferation was chosen as another relevant tissue-specific endpoint to determine the hormonal potency of estetrol after chronic (4-week), oral treatment in ovariectomized rats. An established 4-week animal model, also recommended for evaluation of agents for osteoporosis prevention and therapy, was used. […] 17α-ethinyl-estradiol (EE) and vehicle (1% ethanol/arachidis oil) served as additional controls in this bioassay.
Three months old female Sprague-Dawley rats were either sham-operated (Sham) or ovariectomized (OVX) one day prior to commencement of the dosing study as described in Example 2. Ten animals per treatment group were orally dosed once per day for four consecutive weeks. The dosing commenced 1 day after surgical removal of the ovaries and was administered by oral gavage using a syringe and stainless steel gavage needle at doses of 0.1 mg/kg /day EE, or either 2.5 or 0.5 mg/kg/day E4. Vehicle control was daily administered to one group of OVX-animals and sham-operated rats. After treatment, anesthetized rats were subjected to cardiac puncture and asphyxiated by CO2 inhalation. The uterine horns were isolated and weighed and then fixed in 4% formaldehyde at 4° C. […] Proliferative indices were determined by scoring positively labeled cells on Ki67 immunostained sections. Typically, for each datapoint 1000 luminal epithelial cells were evaluated.

C[C@]12CC[C@@H]3c4ccc(O)cc4CC[C@H]3[C@@H]1[C@@H](O)[C@@H](O)[C@@H]2O [E4, 1,3,5 (10)-estratrien-3,15α,16α,17β-tetrol]
Uterine weight Mean ([1]; 0.1 mg/kg/day): 149.2 mg | Uterine weight Significantly different from vehicle (P < 0.05) ([1]; 0.1 mg/kg/day): no | Vaginal Cornification Non-responders ([1]; 0.1 mg/kg/day): 0 | Vaginal Cornification Significantly different from vehicle (P < 0.05) ([1]; 0.1 mg/kg/day): yes | Vaginal Cornification responders ([1]; 0.1 mg/kg/day): 8 | Uterine weight Mean ([1]; 0.3 mg/kg/day): 181.2 mg | Uterine weight Significantly different from vehicle (P < 0.05) ([1]; 0.3 mg/kg/day): no | Vaginal Cornification Non-responders ([1]; 0.3 mg/kg/day): 0 | Vaginal Cornification Significantly different from vehicle (P < 0.05) ([1]; 0.3 mg/kg/day): yes | Vaginal Cornification responders ([1]; 0.3 mg/kg/day): 8 | Uterine weight Mean ([1]; 1.0 mg/kg/day): 253.7 mg | Uterine weight Significantly different from vehicle (P < 0.05) ([1]; 1.0 mg/kg/day): yes | Vaginal Cornification Non-responders ([1]; 1.0 mg/kg/day): 0 | Vaginal Cornification Significantly different from vehicle (P < 0.05) ([1]; 1.0 mg/kg/day): yes | Vaginal Cornification responders ([1]; 1.0 mg/kg/day): 8 | Uterine weight Mean ([1]; 3.0 mg/kg/day): 308.4 mg | Uterine weight Significantly different from vehicle (P < 0.05) ([1]; 3.0 mg/kg/day): yes | Vaginal Cornification Non-responders ([1]; 3.0 mg/kg/day): 0 | Vaginal Cornification Significantly different from vehicle (P < 0.05) ([1]; 3.0 mg/kg/day): yes | Vaginal Cornification responders ([1]; 3.0 mg/kg/day): 8 | percentage of Ki67-positive luminal epithelial cells, dose trend [2]: declined with increasing doses
